Like-named read-outs stand apart in the source and are kept apart here.
Assays:
[1] = target: T1, erythrocyte AChE (Homo sapiens, UniProt P22303); design: from tissue; host or cells: human whole peripheral blood (erythrocytes), K2EDTA anticoagulant; method as in PMID 38008925; conditions: human blood; read-out: IC50, erythrocyte AChE inhibition; cited from earlier work
[2] = target: T1, erythrocyte AChE; experiment: Exposure Activity Ratio (EAR) and Dietary Comparator Ratio (DCR) calculation; design: from tissue; host or cells: human whole peripheral blood (erythrocytes), K2EDTA anticoagulant; conditions: human, single oral 1600 mg/kg BW
Procedure: The DCR value for an exposure scenario was calculated as the ratio of EARtest and EARcomparator (eq 1). The EARtest is scenario-specific and was defined with the IC50 of the tested organophosphate oxon for in vitro erythrocyte AChE inhibition and the PBK model-simulated CBmaxoxon at the defined exposure level (eq 2).
The DCR-based predictions were evaluated by comparing the obtained DCR results with actual knowledge of the adverse health effects reported for the respective exposure scenarios. Adverse effects cannot be ruled out for human exposure scenarios with a DCR result greater than 1, while exposure scenarios with a DCR result less than or equal to 1 are considered to raise no safety concern.[18]−[20] Once validated as an adequate predicting tool, the DCR approach was applied for evaluating the safety of exposure scenarios, for which no information on the resulting toxic outcomes was reported at the defined dose levels for humans.

[3] = QSAR-based prediction; ref Punt et al. 2022; Moerenhout et al. 2024; cited from earlier work
[4] = target: T1, erythrocyte AChE; experiment: biochemical; type: biochemical; design: from tissue; host or cells: human whole peripheral blood (erythrocytes), K2EDTA anticoagulant
Procedure: Ethanol (UPLC/MS grade) was ordered from Biosolve (Valkenswaard, The Netherlands). Ultrapure water used for experiments was prepared with a Sartorius Arium Pro ultrapure water system (Göttingen, Germany). Human whole peripheral blood with K2EDTA as an anticoagulant was used for the in vitro AChE inhibition assay. K2EDTA acts as an inhibitor to the paraoxonase 1 (PON1) enzyme,[23] preventing the underestimation of the inhibition potential of organophosphate oxons due to the nontarget clearance by PON1 present in the blood samples.
Inhibition of erythrocyte AChE by the organophosphate oxon or the corresponding oxon metabolite of an organothiophosphate was measured in vitro using the method previously described.[12] The ethanolic stock solution of the test oxon was first diluted 100 times with sodium phosphate buffer (100 mM, pH 7.4), and 10 μL of the diluted solution was added to 90 μL of human whole blood sample in a 48-wells flat-bottom transparent plate (Greiner Bio-One, The Netherlands). After a 30 min incubation at room temperature, the blood samples were then diluted 20 times with ultrapure water containing 0.03% Triton-X 100 (v/v), and 20 μL of the Triton-diluted blood was incubated for 20 min following the addition of 460 μL of DTNB and 20 μL of ethopropazine (an inhibitor to plasma butyrylcholinesterase (BuChE)). After that, 100 μL of ATC was added (final concentrations of ethopropazine, DTNB, and ATC were 20 μM, 1 mM, and 1 mM, respectively), and the absorbance at 436 nm was measured continuously to detect the remaining AChE activity. Controls were carried out by replacing the test compound with sodium phosphate buffer to correct for any background absorbance.
The benchmark response (BMR) of 5% for erythrocyte AChE inhibition is a conservative end point for deriving an effect level, since regulatory bodies usually use a higher BMR (i.e., 10% or 20%) for risk assessment of acute OP pesticide exposure.[24],[25] The European Food Safety Authority (EFSA) Web tool (https://efsa.openanalytics.eu/) integrated with the R package PROAST (version 70.0) was employed for the BMC analysis (see Supporting Information).

[5] = target: T1, erythrocyte AChE; conditions: cited from earlier work; for reported or expected adverse health outcome: human, single oral 1600 mg/kg BW, ref Table S2, 1600 mg/kg

T1 sequence (P22303 32-617 isoform P22303-2 limits assumed): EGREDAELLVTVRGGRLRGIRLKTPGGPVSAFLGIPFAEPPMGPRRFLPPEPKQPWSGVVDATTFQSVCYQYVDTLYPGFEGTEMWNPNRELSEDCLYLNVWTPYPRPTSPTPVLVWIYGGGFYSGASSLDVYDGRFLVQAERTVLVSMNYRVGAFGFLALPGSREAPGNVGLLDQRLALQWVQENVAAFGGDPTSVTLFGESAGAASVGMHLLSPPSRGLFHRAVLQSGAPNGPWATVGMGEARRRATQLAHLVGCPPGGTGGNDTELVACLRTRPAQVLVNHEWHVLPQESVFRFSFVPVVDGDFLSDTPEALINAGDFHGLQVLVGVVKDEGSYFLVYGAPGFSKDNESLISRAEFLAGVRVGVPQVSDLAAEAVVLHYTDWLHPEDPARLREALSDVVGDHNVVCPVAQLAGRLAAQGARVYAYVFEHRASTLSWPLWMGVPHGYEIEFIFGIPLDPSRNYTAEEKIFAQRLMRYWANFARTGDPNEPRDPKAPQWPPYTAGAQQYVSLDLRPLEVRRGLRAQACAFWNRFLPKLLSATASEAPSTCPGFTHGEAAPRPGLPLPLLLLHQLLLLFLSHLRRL

Compound	IC50 [1]	calculated DCR value [2]	calculated EARtest value [2]	Oral absorption rate constant [3]	IC50 [4]	Reported concomitant effects (signs and symptoms) ([5]; 1600 mg/kg BW (112 g) acute oral, person, ref Seno et al. 1998)	reported or expected adverse health outcome [5]	reported or expected adverse health outcome ([5]; listed as Profenofos)
COP(=O)(OC)Oc1ccc([N+](=O)[O-])c(C)c1 [fenitrooxon]	0.84 µM	–	–	–	–	–	–	–
CCCSP(=O)(OCC)Oc1ccc(Br)cc1Cl (centres unmarked) [profenofos]	–	272	10.75	0.90 h⁻¹	94.5 µM	Died	positive	Yes
